Test results reported in patent US6096874A (Board of Regents, the University of Texas System, priority 1995, dated 2000).
Where two headings read alike, the source gives them in different places.

Test: in vivo
Set-up: species or system rat
Settings: for Tumor uptake: 120 min; for tissue uptake at 0.5 h / tissue uptake at 2 h / tissue uptake at 4 h: iv; for tissue uptake at 0.5 h: 30 min
Procedure: In animal tissue distribution studies, each rate was given 8.9 μCi (0.15 ml) tracer intravenously. The tumor-bearing rats were killed at 1, 3, 6 and 24 h. […] The amount of DES given should occupy tumor estrogen receptor sites. The methods for inducing tumors in rats was as described by those of skill in the art (radiology). […]
Female Fisher 344 rats (250-275 g) (Harlan, Inc., Indianapolis, Ind.) were inoculated with mammary tumor cells using the 13762 tumor cell line (s.c. 10^5 cells/rat). After 14 days, a tumor size of 1-2 cm was observed. For ^131 I-ITX studies, five groups of rats (N=3/group) were anesthetized with ketamine (10-15 mg/rat). The trans ^131 I-ITX was given to four of the five groups (8.9 μCi/rat, i.v.) and biodistribution was studied at 1, 3, 6 and 24 h intervals. In blocking studies, the fifth group of rats was given diethylstilbestrol (DES) (1.2 mg/rat) for 1 h, followed by 8.9 μCi of ^131 I-ITX; biodistribution was studied 6 h later. The tissues were collected at different time intervals. The tissues were weighted and counted for radioactivity. The percent of injected dose per gram of tissue weight was calculated. […]

[1] = 2 h, pretreated with DES (blocking)
[2] = rat, blood, read-out: Blood uptake
[3] = rat, bone, read-out: Bone uptake
[4] = rat, kidney, read-out: Kidney uptake
[5] = rat, liver, read-out: Liver uptake
[6] = rat, lung, read-out: Lung uptake
[7] = rat, muscle, read-out: Muscle uptake
[8] = rat, tumor, read-out: Tumor uptake
[9] = rat, uterus, read-out: Uterus uptake

Blood uptake [1]: 0.102 % injected dose/gram tissue
Bone uptake [1]: 0.278 % injected dose/gram tissue
Kidney uptake [1]: 1.241 % injected dose/gram tissue
Liver uptake [1]: 7.242 % injected dose/gram tissue
Lung uptake [1]: 2.084 % injected dose/gram tissue
Muscle uptake [1]: 0.131 % injected dose/gram tissue
Uterus uptake [1]: 0.435 % injected dose/gram tissue
Tumor uptake [1]: 0.24±0.017 % injected dose/gram tissue
Tumor uptake (2 h, pretreated with DES (blocking), listed as [^18 F]FLUOROMETHYL-N,N-DIETHYL-TAMOXIFEN): 0.244 % injected dose/gram tissue
Tumor uptake (2 h): 0.405 % injected dose/gram tissue
tissue uptake at 0.5 h [2]: 0.169 %ID/g
tissue uptake at 2 h (rat, blood, 2 h, read-out: Blood uptake): 0.114 %ID/g
tissue uptake at 4 h [2]: 0.069 %ID/g
tissue uptake at 0.5 h [3]: 0.264 %ID/g
tissue uptake at 2 h (rat, bone, 2 h, read-out: Bone uptake): 0.482 %ID/g
tissue uptake at 4 h [3]: 0.258 %ID/g
tissue uptake at 0.5 h [4]: 1.71 %ID/g
tissue uptake at 2 h (rat, kidney, 2 h, read-out: Kidney uptake): 2.08 %ID/g
tissue uptake at 4 h [4]: 0.652 %ID/g
tissue uptake at 0.5 h [5]: 6.36 %ID/g
tissue uptake at 2 h (rat, liver, 2 h, read-out: Liver uptake): 6.93 %ID/g
tissue uptake at 4 h [5]: 6.5 %ID/g
tissue uptake at 0.5 h [6]: 3.82 %ID/g
tissue uptake at 2 h (rat, lung, 2 h, read-out: Lung uptake): 3.5 %ID/g
tissue uptake at 4 h [6]: 1.31 %ID/g
tissue uptake at 0.5 h [7]: 0.183 %ID/g
tissue uptake at 2 h (rat, muscle, 2 h, read-out: Muscle uptake): 0.234 %ID/g
tissue uptake at 4 h [7]: 0.093 %ID/g
tissue uptake at 0.5 h [8]: 0.256 %ID/g
tissue uptake at 2 h (rat, tumor, 2 h, read-out: Tumor uptake): 0.41 ± 0.07 %ID/g
tissue uptake at 4 h [8]: 0.284 %ID/g
tissue uptake at 0.5 h [9]: 0.536 %ID/g
tissue uptake at 4 h [9]: 0.364 %ID/g
SMILES: CCN(CC)CCOc1ccc(/C(=C(/CCC[18F])c2ccccc2)c2ccccc2)cc1 [[^18 F]FTX, (trans)[^18 F]Fluoromethyl-N,N-diethyltamoxifen]
Tissue uptake findings (in words) (rat, in vivo): increased uptake in the tumor and uterus can be blocked by pretreatment with diethylstilbestrol (DES)
